Consider 17 compounds from ChEMBL document CHEMBL1143059, “Structure-based design, synthesis and preliminary evaluation of selective inhibitors of dihydrofolate reductase from Mycobacterium tuberculosis” (Bioorg Med Chem, 2007).

Each structure is given as a SMILES string.

In experiment [1] the target is T1, Dihydrofolate reductase (Saccharomyces cerevisiae S288c) (UniProt P07807).
T1 sequence (whole entry): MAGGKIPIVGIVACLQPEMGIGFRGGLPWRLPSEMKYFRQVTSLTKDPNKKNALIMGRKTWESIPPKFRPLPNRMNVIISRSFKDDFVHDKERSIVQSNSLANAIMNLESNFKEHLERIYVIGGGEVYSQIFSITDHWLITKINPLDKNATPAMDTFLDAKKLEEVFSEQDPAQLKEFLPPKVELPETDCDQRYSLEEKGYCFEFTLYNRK
Description: Inhibition of yeast DHFR expressed in Saccharomyces cerevisiae TB5 assessed as yeast growth inhibition by after 3 days by radial spoke assay

The target of experiment [2] is T2, Dihydrofolate reductase (Homo sapiens) (UniProt P00374).
T2 sequence (whole entry): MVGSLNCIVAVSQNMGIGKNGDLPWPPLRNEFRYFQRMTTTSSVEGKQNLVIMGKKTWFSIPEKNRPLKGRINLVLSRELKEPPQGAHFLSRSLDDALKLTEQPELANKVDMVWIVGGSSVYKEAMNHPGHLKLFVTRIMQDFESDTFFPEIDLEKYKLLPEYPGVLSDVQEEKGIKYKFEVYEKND
Description: Inhibition of human DHFR expressed in Saccharomyces cerevisiae TB5 assessed as yeast growth inhibition after 3 days by radial spoke assay

In experiment [3] the target is T3, Dihydrofolate reductase (Mycobacterium tuberculosis) (UniProt P9WNX1).
T3 sequence (whole entry): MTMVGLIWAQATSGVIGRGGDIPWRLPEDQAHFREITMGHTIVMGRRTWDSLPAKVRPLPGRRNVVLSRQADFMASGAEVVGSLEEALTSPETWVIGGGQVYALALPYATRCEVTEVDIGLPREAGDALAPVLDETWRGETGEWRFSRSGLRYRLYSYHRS
Description: Inhibition of Mycobacterium tuberculosis DHFR expressed in Saccharomyces cerevisiae TB5 assessed as yeast growth inhibition after 3 days by radial spoke assay

Take `Nc1nc(N)c(-c2ccc(Cl)c(Cl)c2)c(CC[C@@H](O)[C@@H](O)CO)n1`: the IZ in experiment [1], in experiment [2] and in experiment [3] was 8 mm in each case.
Take `Nc1nc(N)c(-c2ccccc2)c([C@H](O)[C@H](O)CO)n1`: the IZ in experiment [1], in experiment [2] and in experiment [3] was 5 mm throughout.
For `Nc1nc(N)c(-c2ccc(Cl)cc2)c(CC[C@H](O)[C@@H](O)CO)n1`, the IZ in experiment [1] was 6 mm; in experiment [2] it was 7 mm; in experiment [3], 7 mm.
`Nc1nc(N)c(-c2ccc(Br)cc2)c(CCCCCO)n1`: the IZ in experiment [1] turned out to be 9 mm; in experiment [2], 8 mm; in experiment [3] it was 8 mm.
Regarding `CCc1nc(N)nc(N)c1-c1cccc(Cl)c1`, the IZ in experiment [1] was determined as 5 mm; in experiment [2], 6 mm; in experiment [3] it was 5 mm.
Consider `Nc1nc(N)c(-c2ccccc2)c(CC[C@@H](O)[C@@H](O)CO)n1`, for which the figures for the IZ in experiment [1], in experiment [2] and in experiment [3] were 6 mm, 6 mm and 11 mm, respectively.
In the case of `Nc1nc(N)c(-c2ccc(Cl)c(Cl)c2)c([C@H](O)[C@H](O)CO)n1`, the IZ in experiment [1] was 7 mm; in experiment [2], 8 mm; in experiment [3], 8 mm.
On to `Nc1nc(N)c(-c2ccc(Br)cc2)c([C@H](O)[C@H](O)CO)n1`, for which the IZ in experiment [1], in experiment [2] and in experiment [3] was 5 mm in each case.
For the compound `Nc1nc(N)c(-c2ccc(Cl)cc2)c([C@H](O)[C@H](O)CO)n1`, the IZ in experiment [1], in experiment [2] and in experiment [3] was 5 mm throughout.
`Nc1nc(N)c(-c2ccc(Br)cc2)c(CC[C@H](O)[C@@H](O)CO)n1`: the IZ was 6 mm in experiment [1], 5 mm in experiment [2] and 8 mm in experiment [3].
For the compound `Nc1nc(N)c(-c2ccc(Cl)c(Cl)c2)c(CCCCCO)n1`, the IZ in experiment [1], in experiment [2] and in experiment [3] was 9 mm throughout.
For `Nc1nc(N)c(-c2ccc(Cl)cc2)c(CCCCCO)n1`, the IZ in experiment [1], in experiment [2] and in experiment [3] was 8 mm each time.
Turning to `Nc1nc(N)c(-c2ccccc2)c(CC[C@H](O)[C@@H](O)CO)n1`, the IZ in experiment [1] was 8 mm; in experiment [2], 8 mm; in experiment [3], 9 mm.
With `Nc1nc(N)c(-c2ccccc2)c(CCCCCO)n1`, the IZ in experiment [1] was determined as 9 mm; in experiment [2] it was 7 mm; in experiment [3], 7 mm.
With `Nc1nc(N)c(-c2ccc(Cl)cc2)c(CC[C@@H](O)[C@@H](O)CO)n1`, the IZ was 7 mm in experiment [1], 7 mm in experiment [2] and 9 mm in experiment [3].
For `Nc1ncc(-c2ccccc2)c(CCc2ccccc2)n1`, the IZ in experiment [1], in experiment [2] and in experiment [3] was 5 mm each time.
Consider `Nc1nc(N)c(-c2ccc(Br)cc2)c(CC[C@@H](O)[C@@H](O)CO)n1`, for which the IZ in experiment [1] worked out at 8 mm; in experiment [2], 6 mm; in experiment [3], 7 mm.
